The nature of the data set: Water solubility, HPLC with external standard. The format is physicochemical.

This is an account of results in patent publication US8524949B2, “Agomelatine hydrohalide complex and preparation method thereof” (Les Laboratories Servier, priority 2009, dated 2013).

In brackets after ≈: the same amount, converted by molar mass.

In the case of `COc1ccc2cccc(CCNC(C)=O)c2c1` [Agomelatine, N-[2-(7-methoxy-1-naphthyl)ethyl]-acetamide], the concentration in solution (solubility) was 1110 µg/mL (≈ 4.56 mM).
